Legend:
Type in all cases: in vivo
[1] = tested on: cyst [Heterodera glycines]; test: Greenhouse nematicide test, iodinated C1-C3 hydrocarbons (Experiment 4); settings: 0.4 ml rate
Description: In this experiment, the nematicidal properties of low molecular weight iodinated hydrocarbons were investigated. The nematicidal properties of iodinated C1-C3 hydrocarbons were evaluated in greenhouse experiments with field soil infested with root-knot [Meloidogyne arenaria] and cyst [Heterodera glycines] nematodes. lodomethane, di-iodomethane, iodoethane, di-iodoethane, and 1-iodopropane were added to soil at rates of 0.1, 0.2 and 0.4 ml/kg soil.
The treated soil was kept moist for 10 days when soil samples were taken for nematode analysis and ‘Brim’ soybean [Glycine max] planted. Soybeans were allowed to grow for 8 weeks and then were removed from the soil to determine plant growth, root-knot indices and the number of galls generated by M arenaria. […] All compounds except 1-iodopropane increased fresh shoot weight when applied at ≧0.1 ml/kg soil.

[2] = tested on: 'Brim' soybean [Glycine max]; test: Soybean growth in treated soil (Experiments 1 and 2)
Description: Additionally, the nematicidal properties of iodinated hydrocarbons were investigated in greenhouse experiments with field soil infested with Meloidogyne arenaria and Heterodera Glycines. Chemicals were added directly to infested solid at rates <100 mg/Kg soil. Treated soil was kept moist (approximately 60 percent field capacity) and uncovered for 7-10 days when samples were collected, and the pots were planted with ‘Brim’ soybean, Glycine max. […] 1,2-diiodoethane (C2), 1,3-diiodopropane (C3), 1,4-diiodobutane (C4), 1,5-diiodopentane (C5), 1,6-diiodohexane (C6), and […] were applied to soil rates of 2.5, 5.0, 7.5, and 10 mg/Kg soil. All rates of C2 and C8 were ineffective in reducing M. arenaria juvenile (J2) populations in preplant samples. This was also true for C2 and J2 populations of H. glycines; however, […] rates ≧5.0 mg suppressed J2 populations of H. glycines. […] H. glycines J2 numbers in final soil samples were generally inversely related to rates for C3-C8. […] Applications of C3-C6 to soil increased shoot weights in a manner directly related to dosages but only in a curvilinear pattern.
In this experiment, the nematicidal properties of various diiodinated hydrocarbons were compared. The nematicidal properties of diiodinated C2-C8 normal hydrocarbons was assessed in a greenhouse experiment with field soil infested with Meloidogyne arenaria [Ma] and Heterodera glycines [Hg]. 1,2-diiodoethane [C2], 1,3-diiodopropane [C3], 1,4-diiodobutane [C4], 1.5-diiodopentane [C5], 1,6-diiodohexane [C6] and 1,8-diiodooctane [C8] were applied to soil at rates of 2.5, 5.0, 7.5, and 10.0 mgs/kg soil. The potted soil was kept moist in a greenhouse for 10 days when preplant samples were collected for analysis, and the pots were planted with ‘Brim’ soybean [Glycine max]. After 7 weeks of growth, the plants were removed and final soil samples taken. Data was collected on weights of fresh roots and shoots, root galling by Ma, and numbers of nematodes in soil and roots. All rates of C2 and C8 were ineffective in reducing Ma juvenile [J2] populations in the preplant samples. This was also true for C2 and J2 populations of Hg; however, C8 rates ≧5.0 mg suppressed J2 populations of Hg. […] Hg J2 numbers in final soil samples were generally inversely related to rates for C3-C8. This pattern of suppression in J2 numbers was also applicable to Ma in the final soil samples but only for C3-C6. […] Applications of C3-C6 to soil increased shoot weights in a manner directly related to dosages but non-linear in pattern.

[3] = tested on: American cockroach, Periplaneta americana (L.); test: Fumigant toxicity in sealed glass jar, American cockroach; settings: 8-36 adult males
[4] = tested on: Cowpea weevil, Callosobruchus maculatus (F.); test: Fumigant toxicity, Cowpea weevil; design: concentration or dose not given beside the values; settings: 30 adults
Description: Shown in Table 2 is the toxicity of both monoiodinated and diiodinated hydrocarbons to the German and American cockroach and the Cowpea weevil after 24 hours of exposure.

Pratylenchus brachyurus = test: Greenhouse nematicide test, iodomethane vs ethylene diiodide (Experiment 5); settings: rates 100-400 mg/kg of soil
Description: (§1) In this experiment, the nematotoxic properties of ethylene diiodide were compared to that of methyl iodide. The nematicidal efficacies of iodomethane [IM] and ethylene diiodide [EDI] were compared in a greenhouse experiment using field soil infested with Meloidogyne arenaria, Pratylenchus brachyurus, and Paratrichodorus christiei.
(§2) Each compound was added to soil at rates of 100, 200, 300 and 400 mg s/kg of soil. The soil was potted and kept moist for two weeks when it was planted with ‘Brim’ soybean after taking samples for nematological analyses. After eight weeks of growth, the plants were removed from the pots and soil samples taken. Data was collected on weights of fresh roots and shoots, general appearance of roots [root condition index] and root gall formation by M. arenaria. All EDI rates eliminated M. arenaria juveniles [J2] and populations of the other nematodes in the preplant samples; IM reduced J2 numbers by 50-70%, eliminated P. christiei with the 400 mg rate, but had no effect on P. brachyurus. […] The general appearance of roots was improved by EDI at rates ≦300 mg, but MI had no effect on the variable. […] M. arenaria J2 populations in roots were reduced by 60-70% by MI treatments, but the compound had no effect on root populations of P. brachyurus. MI had no effect on J2 populations in the final soil samples, although it suppressed P. christiei, by 50-70%.

Meloidogyne arenaria = test: as above
Description: as §1, §2

[5] = tested on: Paratrichodorus christiei; test: as above; settings: all rates (100-400 mg/kg of soil)
Description: as §1, §2

[6] = tested on: Meloidogyne arenaria, Pratylenchus brachyurus, and Paratrichodorus christiei; test: Nematodes in roots and soils at end of Experiment 5 (all nematodes); settings: after eight weeks of growth
Description: as §1, §2

[7] = tested on: German cockroach, Blattella germanica (L.); test: Fumigant toxicity in sealed glass jar, German cockroach; settings: 30-60 adult males

`ICCI` [1,2-diiodoethane] was tested, and the “H. glycines J2 populations in soil” value [1] was “eliminated”, the “Shoot weights of soybean” value ([2]; 2.5 mg rate) was “increased shoot weights slightly” and the “Shoot weights of soybean” value ([2]; rates higher than 2.5 mg) was “no significant effect”. For the same molecule, the “% Mortality after 1 h exposure, American cockroach” value ([3]; 1 h exposure) was 8%, the “% Mortality after 24 h exposure, American cockroach” value ([3]; 24 h exposure) was 100% and the “% Mortality after 24 h exposure, Cowpea weevil” value [4] was 100%. The “P. brachyurus populations in preplant samples” value (Pratylenchus brachyurus) was “eliminated”, the “M. arenaria juveniles [J2] in preplant samples” value (Meloidogyne arenaria; all rates (100, 200, 300, 400 mg/kg of soil)) was “eliminated” and the “Galls in roots of plants from treated soil (M. arenaria)” value (Meloidogyne arenaria; soybean after eight weeks) was “no galls”. For the same molecule, the “P. christiei populations in preplant samples” value [5] was “eliminated”, the “Nematodes in roots and soils at end of experiment” value [6] was “no nematodes” and the “% Mortality after 1 h exposure, German cockroach” value ([7]; 1 h exposure) was 40%. For the same molecule, the “% Mortality after 24 h exposure, German cockroach” value ([7]; 24 h exposure) was 10%.
